Assay results reported in US5922709A, “Antifungal composition” (Banyu Pharmaceutical Co., Ltd., priority 1995, dated 1999).
Values after ≈ are worked out from the molar mass of the structure shown.

Tests used:
Assay type in all cases: cell-based
[1] = test system: Candida albicans ATCC 90028; test: Minimum inhibitory concentration (agar dilution method) of itraconazole in the presence and absence of BE-31405, Candida albicans ATCC 90028; details: for MIC of intraconazole: 37° C., 2 days
Procedure: (§1) Now, the minimum inhibitory concentrations (MIC, by an agar dilution method) of itraconazole against Candida albicans IFO 1270, IFO 1385 and ATCC90028 in the presence and absence of BE-31405, are shown in Tables 3, 4 and 5, respectively. As the agar medium for the measurement of MIC, a culture medium having 1% of glucose and 1.2% of agar added to a yeast nitrogen base, manufactured by Difico Co., was used, and after inoculation of the strain solution, culturing was carried out at 37° C. for 2 days, whereupon the concentration at which no growth of the strain was observed, was judged to be MIC.

[2] = test system: Candida albicans IFO 1270; test: Minimum inhibitory concentration (agar dilution method) of itraconazole in the presence and absence of BE-31405, Candida albicans IFO 1270; details: for MIC of intraconazole: 37° C., 2 days
Procedure: as §1

[3] = test system: Candida albicans IFO 1385; test: Minimum inhibitory concentration (agar dilution method) of miconazole in the presence or absence of BE-31405, Candida albicans IFO 1385; details: for MIC of miconazole: yeast morphology agar, 37° C., 2 days
[4] = test system: Candida albicans IFO 1385; test: Minimum inhibitory concentration (agar dilution method) of itraconazole in the presence and absence of BE-31405, Candida albicans IFO 1385; details: for MIC of intraconazole: 37° C., 2 days
Procedure: as §1

[5] = BE-31405 0.0 μg/ml (absence), yeast nitrogen base, 1% glucose, 1.2% agar
[6] = itraconazole combined with BE-31405, ATCC 90028 (Table 5)
[7] = with BE-31405 0.025 μg/ml, yeast nitrogen base agar
[8] = with BE-31405 0.05 μg/ml, yeast nitrogen base agar
[9] = with BE-31405 0.1 μg/ml, yeast nitrogen base agar
[10] = with BE-31405 0.39 μg/ml, yeast nitrogen base agar
[11] = itraconazole combined with BE-31405, IFO 1270 (Table 3)
[12] = itraconazole combined with BE-31405, IFO 1385 (Table 4)

Work on `CC(=O)OC1C2OC3(OCC45CC6C(C)CCC6C6(C=O)CC4C=C(C(C)C)C65C(=O)O)OC2OC1C3O` (stereo not drawn) [BE-31405] yielded an MIC ([1]; Candida albicans, ATCC90028, 48 h, BE31405 alone under this test condition (Table 5)) of 1.56 µg/mL (≈ 2.93 µM), an MIC ([2]; Candida albicans, IFO1270, 48 h, BE31405 alone under this test condition (Table 3)) of 0.78 µg/mL (≈ 1.46 µM) and an MIC ([3]; Candida albicans, IFO1385, 48 h, BE31405 alone under this test condition (Table 2)) of 1.56 µg/mL (≈ 2.93 µM). For the same compound, the MIC ([4]; Candida albicans, IFO1385, 48 h, BE31405 alone under this test condition (Table 4)) was 1.56 µg/mL (≈ 2.93 µM).
For `CCC(C)n1ncn(-c2ccc(N3CCN(c4ccc(OCC5COC(Cn6cncn6)(c6ccc(Cl)cc6Cl)O5)cc4)CC3)cc2)c1=O` (stereo not drawn) [itraconazole], the MIC of intraconazole [1, 5] was greater than 100 µg/mL, the “effect of combined use” value [1, 6] was “strong synergistic effects” and the “fractional inhibitory concentration index” value [1, 6] was “at most 0.2”. The “antifungal activities of itraconazole in the presence of a low concentration of BE-31405” value (shortened to “antifungal activities of itraconazole”) ([1]; low concentration of BE-31405, ATCC 90028 (Table 5)) was “substantially enhanced”, the MIC of intraconazole [1, 7] was 1.56 µg/mL and the MIC of intraconazole [1, 8] was 0.2 µg/mL. The MIC of intraconazole [1, 9] was 0.2 µg/mL, the MIC of intraconazole [1, 10] was 0.1 µg/mL and the MIC of intraconazole [2, 5] was greater than 100 µg/mL. The “effect of combined use” value [2, 11] was “strong synergistic effects”, the “fractional inhibitory concentration index” value [2, 11] was “at most 0.2” and the “antifungal activities of itraconazole” value ([2]; low concentration of BE-31405, IFO 1270 (Table 3)) was “substantially enhanced”. For the same compound, the MIC of intraconazole ([2]; with BE-31405 0.006 μg/ml, yeast nitrogen base agar) was 0.05 µg/mL, the MIC of intraconazole [2, 7] was 0.013 µg/mL and the MIC of intraconazole [2, 9] was 0.013 µg/mL. For the same compound, the MIC of intraconazole [2, 10] was 0.013 µg/mL, the MIC of intraconazole [4, 5] was greater than 100 µg/mL and the “effect of combined use” value [4, 12] was “strong synergistic effects”. The “fractional inhibitory concentration index” value [4, 12] was “at most 0.2”, the “antifungal activities of itraconazole” value ([4]; low concentration of BE-31405, IFO 1385 (Table 4)) was “substantially enhanced” and the MIC of intraconazole [4, 7] was 1.56 µg/mL. For the same compound, the MIC of intraconazole [4, 8] was 0.2 µg/mL, the MIC of intraconazole [4, 9] was 0.1 µg/mL and the MIC of intraconazole [4, 10] was 0.05 µg/mL.
In the case of `Clc1ccc(COC(Cn2ccnc2)c2ccc(Cl)cc2Cl)c(Cl)c1` (stereo not drawn) [miconazole], the MIC of miconazole ([3]; BE-31405 0.0 μg/ml (absence)) was 12.5 µg/mL, the “antifungal activities of miconazole in the presence of a low concentration of BE-31405” value ([3]; in the presence of a low concentration of BE-31405) was “substantially enhanced” and the “fractional inhibitory concentration index” value ([3]; miconazole combined with BE-31405) was 0.2. The “effect of combined use” value ([3]; miconazole combined with BE-31405, judged from fractional inhibitory concentration index) was “synergistic effect”, the MIC of miconazole ([3]; with BE-31405 0.1 μg/ml) was 1.56 µg/mL and the MIC of miconazole ([3]; with BE-31405 0.2 μg/ml) was 0.78 µg/mL. For the same compound, the MIC of miconazole ([3]; with BE-31405 0.39 μg/ml) was 0.39 µg/mL and the MIC of miconazole ([3]; with BE-31405 0.78 μg/ml) was 0.05 µg/mL.
